Experiments:
[1] = target: T1, opossum kidney PTH/PTHrp receptor clone, OK-O (Didelphis virginiana, UniProt P25107, I132F/S86P); assay: Radioreceptor assay, COS cells expressing OK-O; type: binding; conditions: FIG. 11
T1 construct: expressed in transfected cells; host or cells: COS cells, transient, plasmid OK-O (pcDNA I)
Description: (§1) [Nle^8,Nle^18,Tyr^34]bPTH-(1-34)amide (NlePTH), and [Tyr^36]PTHrP(1-36)amide(PTHrP) were iodinated with Na^125I (carrier free, New England Nuclear, Boston, Mass.) as previously reported (Segre et al., J. Biol. Chem. 254: 6980, 1979), and purified by reverse-phase HPLC. In brief, the labeled peptide was dissolved in 0.1% trifluoracetic acid (TFA), applied to a C18 Sep-pak cartridge (Waters Associates, Inc., Milford, Mass.) and eluted with a solution of 60% acetonitrile in 0.1% TFA. After lyophilization, the radioligand then was applied to C18-μBondapak column (3.9 mm×30 cm. Waters Associates) and eluted over 30 min with a linear gradient of 30-50% acetonitrile-0.1% TFA at a flow rate of 2 ml/min. The radioligand eluted in two peaks; the first peak, which eluted at approximately 38% acetonitrile, was used in these studies because it gave higher total and specific bindings. The specific activity was 500±75 mCi/mg, which corresponds to an average iodine-peptide ratio of 1.
COS-7 cells were grown in 15 cm plates in DMEM, 10% heat-inactivated […], 10 mg/L gentamycin until 80-90% confluent. Twenty-four hours after transfection by the DEAE/Dextran method (Sambrook et al., supra), with 1-2 μg of plasmid DNA, the cells were trypsinized and replated in multiwell plastic dishes (16 or 35 mm diameter, Costar, Cambridge, Mass.) at a cell concentration of 5×10^4 cells/cm^2). Cell number increased only slightly after transfection. After continuing culture for another 48 h, radiorecepter assays were performed. […]
(§2) Incubations were terminated by aspirating the buffer, and repeatedly (×3) washing the culture dishes, containing the adherent cells with chilled 0.9% NaCl solution, over a 15 sec period. Cell-bound radioactivity was recovered by the sequential addition (×3) of 1 N NaOH (200 μl) to each well. […] A second and third extraction with 1 N NaOH (200 μl) were combined with the first, and the total radioactivity was counted in a γ-spectrometer (Packard Instruments, Downers Grove, Ill.). […]

[2] = target: T2, carboxy-terminally-truncated rat receptor, R480 (Rattus norvegicus, UniProt P25961); assay: Binding to carboxy-terminally-truncated rat receptor R480 in COS-7 and CHO cells; conditions: COS-7 (transient) and CHO (stable) cells
T2 construct: R480, by standard PCR technology using R15B as a template and an upstream primer containing a stop codon inserted at position 481; expressed in transfected cells
T2 sequence (P25961 27-480): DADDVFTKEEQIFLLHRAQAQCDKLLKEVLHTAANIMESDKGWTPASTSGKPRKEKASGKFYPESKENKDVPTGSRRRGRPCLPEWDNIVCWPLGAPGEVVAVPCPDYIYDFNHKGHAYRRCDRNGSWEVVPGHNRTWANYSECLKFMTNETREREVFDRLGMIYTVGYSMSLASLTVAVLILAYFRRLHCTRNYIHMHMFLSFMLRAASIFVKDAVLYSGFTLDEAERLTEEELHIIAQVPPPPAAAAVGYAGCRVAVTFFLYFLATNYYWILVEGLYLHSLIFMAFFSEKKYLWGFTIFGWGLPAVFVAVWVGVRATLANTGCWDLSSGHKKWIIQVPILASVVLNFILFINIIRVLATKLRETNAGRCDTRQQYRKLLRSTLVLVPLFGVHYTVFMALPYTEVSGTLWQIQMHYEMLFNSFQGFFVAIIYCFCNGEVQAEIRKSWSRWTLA
Description: as §1, with “The specific activity was 500±75 mCi/mg, which corresponds to an average iodine-peptide ratio of 1.” left out
as §2

T1 sequence (P25107 27-585 S86P/I132F): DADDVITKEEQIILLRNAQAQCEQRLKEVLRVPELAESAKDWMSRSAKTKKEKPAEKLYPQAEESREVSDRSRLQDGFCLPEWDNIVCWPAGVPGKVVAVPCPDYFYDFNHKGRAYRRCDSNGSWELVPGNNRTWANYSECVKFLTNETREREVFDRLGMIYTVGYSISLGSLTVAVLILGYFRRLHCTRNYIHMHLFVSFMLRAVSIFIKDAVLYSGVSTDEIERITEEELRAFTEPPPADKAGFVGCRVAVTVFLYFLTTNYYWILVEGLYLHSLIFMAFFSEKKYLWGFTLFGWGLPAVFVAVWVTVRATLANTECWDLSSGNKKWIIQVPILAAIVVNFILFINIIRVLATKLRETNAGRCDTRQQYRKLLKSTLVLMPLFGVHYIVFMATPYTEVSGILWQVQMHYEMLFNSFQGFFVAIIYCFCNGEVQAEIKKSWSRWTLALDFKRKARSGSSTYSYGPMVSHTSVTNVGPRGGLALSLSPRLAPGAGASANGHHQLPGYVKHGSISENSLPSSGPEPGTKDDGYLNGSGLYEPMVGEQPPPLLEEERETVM

Substance: [Nle^8,18, Tyr^34]bPTH(1-34)amide
- inhibition of 125I-PTHrP binding by competitor [1]: inhibited
- affinity for truncated receptor R480 compared with wild type receptor RB [2]: equivalent affinities

Source: patent US7150974B1, “Parathyroid hormone receptor binding method” (The General Hospital Corporation, priority 1991, dated 2006)
